# Measurements: the supplement of paper PMC10307832
# Experiments:
# Experiment in all cases: relative viability (nuclei count vs DMSO), 5 days (fraction); higher = more cells survive
# Crizotinib + Pictilisib = compound: C[C@@H](Oc1cc(-c2cnn(C3CCNCC3)c2)cnc1N)c1c(Cl)ccc(F)c1Cl [Crizotinib] + CS(=O)(=O)N1CCN(Cc2cc3nc(-c4cccc5[nH]ncc45)nc(N4CCOCC4)c3s2)CC1 [Pictilisib] (partner 1 µM)
# How it was run: (§1)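 Values are medians from duplicate plates. Each reflects relative viability, defined as the nuclei count of treated wells over that of vehicle wells. Lung cancer cell lines in 1536-well plates were pin-tool dosed one day after seeding with one drug alone or with a fixed anchor-drug dose plus five library-drug doses (not always all listed) in √10 steps, then fixed, stained and imaged at 4× after 5 days.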
# Crizotinib + Olaparib = compound: C[C@@H](Oc1cc(-c2cnn(C3CCNCC3)c2)cnc1N)c1c(Cl)ccc(F)c1Cl [Crizotinib] + O=C(c1cc(Cc2n[nH]c(=O)c3ccccc23)ccc1F)N1CCN(C(=O)C2CC2)CC1 [Olaparib] (partner 8 µM)
# How it was run: as §1
# Carfilzomib + Phenformin = compound: CC(C)C[C@H](NC(=O)[C@H](CCc1ccccc1)NC(=O)CN1CCOCC1)C(=O)N[C@@H](Cc1ccccc1)C(=O)N[C@@H](CC(C)C)C(=O)[C@@]1(C)CO1 [Carfilzomib] + N=C(N)NC(=N)NCCc1ccccc1 [Phenformin] (partner 250 µM)
# How it was run: as §1
# Carfilzomib + AZD7762 = compound: CC(C)C[C@H](NC(=O)[C@H](CCc1ccccc1)NC(=O)CN1CCOCC1)C(=O)N[C@@H](Cc1ccccc1)C(=O)N[C@@H](CC(C)C)C(=O)[C@@]1(C)CO1 [Carfilzomib] + NC(=O)Nc1cc(-c2cccc(F)c2)sc1C(=O)N[C@H]1CCCNC1 [AZD7762] (partner 0.2 µM)
# How it was run: as §1
Cell Line,relative viability (Crizotinib + Pictilisib; first compound 0.01 µM),relative viability (Crizotinib + Pictilisib; first compound 0.03162 µM),relative viability (Crizotinib + Pictilisib; first compound 0.1 µM),relative viability (Crizotinib + Pictilisib; first compound 0.3162 µM),relative viability (Crizotinib + Pictilisib; first compound 1 µM),relative viability (Crizotinib + Olaparib; first compound 0.01 µM),relative viability (Crizotinib + Olaparib; first compound 0.03162 µM),relative viability (Crizotinib + Olaparib; first compound 0.1 µM),relative viability (Crizotinib + Olaparib; first compound 1 µM),relative viability (Carfilzomib + Phenformin; first compound 0.001 µM),relative viability (Carfilzomib + Phenformin; first compound 0.003162 µM),relative viability (Carfilzomib + Phenformin; first compound 0.01 µM),relative viability (Carfilzomib + Phenformin; first compound 0.03162 µM),relative viability (Carfilzomib + Phenformin; first compound 0.1 µM),relative viability (Crizotinib + Olaparib; first compound 0.3162 µM),relative viability (Carfilzomib + AZD7762; first compound 0.001 µM),relative viability (Carfilzomib + AZD7762; first compound 0.003162 µM),relative viability (Carfilzomib + AZD7762; first compound 0.01 µM),relative viability (Carfilzomib + AZD7762; first compound 0.03162 µM),relative viability (Carfilzomib + AZD7762; first compound 0.1 µM)
A549,0.558,0.439,0.521,0.543,0.53,0.38,0.259,0.362,0.456,0.0885,0.231,0.113,0.0362,0.0257,–,–,–,–,–,–
COR-L23,0.695,0.747,0.705,0.771,0.775,0.298,0.343,0.372,0.382,0.442,0.435,0.404,0.0562,0.0638,0.366,–,–,–,–,–
COR-L 105,0.353,0.386,0.39,0.354,0.403,0.661,0.689,0.757,0.7,0.572,0.391,0.526,0.261,0.203,0.584,–,–,–,–,–
Calu-6,0.881,0.942,–,0.937,0.865,0.606,0.571,0.522,0.549,–,–,–,–,–,0.624,–,–,–,–,–
EBC-1,0.378,0.215,0.159,0.202,0.198,0.563,0.664,0.643,0.154,–,–,–,–,–,0.182,–,–,–,–,–
IA-LM,0.34,0.331,0.353,0.343,0.305,0.797,0.844,0.821,0.73,–,–,–,–,–,0.691,–,–,–,–,–
NCI-H520,0.261,0.333,0.303,0.319,0.251,0.285,0.35,0.408,0.349,0.609,0.46,0.227,0.287,0.227,0.301,–,–,–,–,–
NCI-H522,–,–,–,–,–,0.658,0.585,0.736,0.604,0.697,0.719,0.668,0.515,0.401,0.747,0.782,0.901,0.925,0.428,0.337
NCI-H661,0.379,0.349,0.383,0.378,0.36,0.703,0.761,0.741,0.737,0.268,0.272,0.272,0.248,0.215,0.81,–,–,–,–,–
NCI-H1299,0.827,0.647,0.728,0.718,0.909,0.95,0.95,0.92,0.975,–,–,–,–,–,0.947,–,–,–,–,–
NCI-H1563,0.527,0.594,0.628,0.555,0.652,–,–,–,–,0.673,0.681,0.61,0.661,0.48,–,–,–,–,–,–
NCI-H1623,–,–,–,–,–,–,–,–,–,0.5,0.612,0.725,0.19,0.414,–,–,–,–,–,–
NCI-H1648,–,–,–,–,–,–,0.981,0.861,0.77,–,–,–,–,–,1.27,0.657,0.621,0.603,0.407,0.268
NCI-H1650,0.516,0.584,0.573,0.535,0.559,0.619,0.801,0.71,0.722,0.421,0.254,0.232,0.174,0.156,0.779,–,–,–,–,–
NCI-H2009,0.607,0.83,0.799,0.688,0.782,0.666,0.712,0.697,0.741,0.514,0.564,0.449,0.155,0.101,0.685,–,–,–,–,–
NCI-H2023,0.225,0.232,0.189,0.192,0.217,0.449,0.498,0.521,0.451,0.406,0.444,0.416,0.145,0.0723,0.408,–,–,–,–,–
NCI-H2228,0.392,0.308,0.362,0.164,0.0922,0.539,0.595,0.624,0.668,0.332,0.293,0.207,0.0804,0.108,0.716,–,–,–,–,–
NCI-H2342,–,–,–,–,–,0.427,0.406,0.429,0.435,0.652,0.521,0.715,0.671,0.352,0.418,0.462,0.513,0.689,0.609,0.347
SK-LU-1,0.613,0.709,0.557,0.686,0.567,0.504,0.438,0.451,0.405,0.458,0.529,0.48,0.0958,0.114,0.477,–,–,–,–,–
SK-MES-1,0.402,0.311,0.35,0.299,0.333,0.683,0.733,0.761,0.637,0.655,0.745,0.635,0.551,0.146,0.762,–,–,–,–,–
SW 1573,0.424,0.525,0.558,0.459,0.52,0.44,0.459,0.542,0.383,0.341,0.43,0.251,0.0664,0.0618,0.483,–,–,–,–,–
UMC-11,0.753,0.854,0.803,0.161,0.785,0.35,0.306,0.375,0.317,0.318,0.33,0.295,0.293,0.162,0.494,–,–,–,–,–
